Laboratory results published in patent US8715697B2, “Genes associated with Leishmania parasite virulence” (priority 2001, dated 2014).
Where a SMILES comes first, the peptide text is derived from it. Bridges are numbered along the chain shown (N, C = ends). Where no end group is shown, it is not given here. [ ]: non-standard residue; d: D form. The star is where a group is joined. Ileψ(thiazoline)Cys = CC[C@H](C)[C@H](N)C1=N[C@H](C(=O)*)CS1; dOrn = NCCC[C@@H](N)C(=O)O

Experiments:
[1] = test system: L. major parasites in the exponential growth phase; assay: Inhibition of parasite (L. major) growth in a liquid medium by PDI inhibitors; assay type: cell-based, Leishmania major; conditions: for growth of Leishmania in a liquid medium (summary statement): no concentration stated, refers to Example 4; for concentration that completely inhibited the growth of L. major in a liquid medium: counted every 24 h over 96 h, FIG. 9 and FIG. 11
Protocol: They are growth curves taken over 96 hours, for promastigotes of L major in the presence of 0, 1 mM, 1.5 mM or 2 mM of bacitracin.
Different concentrations of inhibitors (0 to 5 mM) were used to follow the effect of PDI inhibitors on the multiplication of parasites in vitro. Parasites that had not been treated with inhibitors (T) were selected as a control for these experiments.
With the aim of determining the effect of bacitracin (BAC), zinc bacitracin (BACZn), p-chloromercuribenzoic acid (PCMBA) and 5,5′-dithiobis(2-nitrobenzoic acid) (DTNB) on the in vitro growth of Leishmanias in a liquid medium, different concentrations of the inhibitors cited above, 0 mM, 0.05 mM, 0.1 mM, 0.2 mM, 0.5 mM, 1 mM, 1.5 mM, 2 mM, 2.5 mM and 5 mM were added to RPMI supplemented with 5% fetal calf serum and containing 2×10^6/ml of parasites in the exponential growth phase. The parasites were incubated at 26° C. and counted every 24 hours over 96 hours. The parasites were counted on Mallassez cells.
The PDI inhibitors described in paragraph (1—) were tested with the aim of evaluating their capacities to inhibit the in vitro growth of parasites. To this end, different quantities of inhibitors were added to RPMI containing 2×10^6/ml of parasites in the exponential growth phase. The parasites were incubated at 26° C. and counted every 24 hours over 96 hours. The parasites were counted on Mallassez cells.

[2] = test system: L. major GLC94 isolate promastigotes; assay: Evolution of the disease in BALB/c mice infected with L. major GLC94 promastigotes, lesion size; assay type: in vivo
Text: Sensitive BALB/c mice were infected with 10^6 promastigotes from the GLC94 isolate into the plantar pad and treated or not treated with bacitracin. The treatment was halted 9 weeks after infection (the arrow indicates treatment stoppage).
The availability of zinc bacitracin, which already forms a weapon in the therapeutic arsenal, has allowed it to be tested on the evolution of infection in the BALB/c mouse with L. major. Mice were infected with promastigotes in the stationary growth phase (10^6 promastigotes per paw) of the GLC94 isolate into the plantar pad of the rear paw and treated with a pomade based on 5 mM or 25 mM of BACZn (prepared in Vaseline). Treatment with the pomade was started 48 hours after injecting the parasites, by dint of one application per day over 5 days of the week. Mice infected in the same manner and treated with Vaseline were used as the control. The lesion size was measured each week.

recombinant LmPDI = assay: Inhibition of reactivation of scrambled RNase A by recombinant LmPDI (thio-disulfide oxido-reductase activity); assay type: biochemical, Leishmania major; conditions: for inhibition of rLmPDI activity: FIG. 12; for concentration at which LmPDI activity is completely inhibited: inhibitors tested at 0.01, 0.1, 0.5 and 2 mM
Protocol: (§1) Scrambled RNase A (8 μM) was incubated in a buffer containing 4.5 mM cCMP, 1 mM glutathione GSH, 0.2 mM glutathione disulfide GSSH, 2 mM EDTA and 100 mM of Tris-HCl pH 8 in the presence of bovine serum albumin (BSA) (1.4 μM) as a negative control, bovine protein disulfide-isomerase (1.4 μM) as a positive control, or recombinant LmPDI (1.4 μM) for 30 minutes at 25° C. RNase A reactivation was determined by measuring the RNase A activity at 296 nm every 5 minutes, as described in the literature (Lyles and Gilbert, 1991).
as §1, with “The scrambled RNase” for “Scrambled RNase”, “mM Tris-HCl,” for “mM of Tris-HCl”, “pH 8,” for “pH 8”, “5 minutes for 30 minutes” for “5 minutes,”
The experimental conditions for the thio-disulfide oxido-reductase activity inhibition tests for recombinant LmPDI were strictly identical to those described in the paragraph “Reactivation of RNase A in the presence of recombinant LmPDI protein”, except that the reactions were carried out in the presence of 0.01 mM, 0.1 mM, 0.5 mM and 2 mM of the following PDI inhibitors: • bacitracin; • zinc bacitracin; • p-chloromercuribenzoic acid (pCMBA); • tocinoic acid. d) Inhibition of Parasite (L. Major) Growth in a Liquid Medium
1—Evaluation of the inhibition of recombinant LmPDI. The detailed technique for analyzing the PDI activity of LmPDI was described in Example 2 and in the Materials and Methods section above. The same technique can be used to evaluate the capacity of certain PDI inhibitors which are known or still to be identified (using a molecular model of LmPDI), by adding different concentrations of potential inhibitors to the reaction volume. The results are expressed as the percentage inhibition compared with the buffer alone. Only molecules with a significant and dose-dependent LmPDI inhibiting activity are retained.
With the aim of determining whether the different PDI inhibitors described in the literature could inhibit the thio-disulfide oxido-reductase activity of LmPDI, the capacity of these inhibitors to block the enzymatic activity of LmPDI synthesized in E. coli then purified was studied in an in vitro test, at different-concentrations. The inhibitors were: • bacitracin; • zinc bacitracin; • p-chloromercuribenzoic acid (pCMBA); • tocinoic acid.
Twenty milligrams of RNase A (Amersham.-Pharmacia) was denatured in a buffer composed of 0.15 M dithiothreitol, 6M guanidine HCl and 0.1 M Tris-HCl, pH 8.6 for 18 hours at ambient temperature. The scrambled RNase was then purified on a Sephadex G25 column equilibrated in HCl 0.01 M and quantified by spectrophotometry at 275 nm.
In a glutathione-based reducing buffer, PDI catalyzes renaturing of scrambled RNase (Gilbert, 1998). Restoration of RNase activity was measured by spectrophotometry in the presence of cytidine 2′-3′-cyclic monophosphate (cCMP) as a substrate. 8 μM of scrambled RNase, alone or in the presence of 1.4 μM of bovine serum albumin (BSA) or 1.4 μM of rLmPDI was mixed in a buffer containing 4.5 mM of cCMP, 1 mM of reduced glutathione (GSH), 200 μM of oxidized glutathione (GSSG), 2 mM EDTA and 100 mM Tris-Cl, pH 8. The reaction was carried out at ambient temperature for 30 minutes. The hydrolysis of cCMP resulting from the renaturing of RNase was recorded by measuring the absorbance at 296 nm every 5 minutes for the half hour of the reaction.
The activity of the recombinant LmPDI (rLmPDI) was measured in the presence of different concentrations of bacitracin (BAC 0.01 mM-2 mM) and zinc bacitracin (BACZn, 0.01 mM-2 mM).

[3] = test system: L. major GLC94 isolate promastigotes; conditions: treatments used in man; general statement; cited from earlier work
GLC94 promastigotes = assay: In vitro growth kinetics of L. major promastigotes in the presence of zinc bacitracin; assay type: cell-based, Leishmania major; conditions: FIG. 13
Protocol: FIG. 13 illustrates the inhibition of the multiplication of GLC94 promastigotes by zinc bacitracin. The effect of zinc bacitracin (BACZn) on the multiplication of GLC94 promastogotes was determined in vitro. Different concentrations of inhibitor were tested to analyze their effect on the capacity of the parasites to multiply in vitro. The control (C) was constituted by parasites cultivated in a complete medium in the absence of inhibitors.
To this end, promastigotes from the GLC94 isolate were cultured on a medium based on coagulated rabbit serum for two days. […] Promastigotes cultured in complete medium in the absence of inhibitors were used as the control. Monitoring was by counting the parasites at 48, 72 and 96 hours.

O=C(O)c1cc(SSc2ccc([N+](=O)[O-])c(C(=O)O)c2)ccc1[N+](=O)[O-] [DTNB, 5,5′-dithiobis(2-nitrobenzoic acid)]
effect on the growth of Leishmanias in a liquid medium ([1]; in the concentrations used (0 to 5 mM), FIG. 11): did not appear to have a very large effect

CC[C@H](C)[C@H](N)C1=N[C@H](C(=O)N[C@@H](CC(C)C)C(=O)N[C@H](CCC(=O)O)C(=O)N[C@H](C(=O)N[C@H]2CCCCNC(=O)[C@H](CC(N)=O)NC(=O)[C@@H](CC(=O)O)NC(=O)[C@H](Cc3cnc[nH]3)NC(=O)[C@@H](Cc3ccccc3)NC(=O)[C@H]([C@@H](C)CC)NC(=O)[C@@H](CCCN)NC2=O)[C@@H](C)CC)CS1 [bacitracin] ({Ileψ(thiazoline)Cys}-L[dE]IK[dOrn]I[dF]H[dD]N; lactam 4-C)
mice with lesion attenuation ([2]; pomade 5 mM): 2 out of 3 | mice with lesion attenuation ([2]; pomade 25 mM): 2 out of 4 | inhibition of rLmPDI activity (recombinant LmPDI; 0.1 mM): 50% | inhibition of rLmPDI activity (recombinant LmPDI; 0.5 mM): 70% | inhibition of rLmPDI activity (recombinant LmPDI; 2 mM): 100% | concentration at which LmPDI activity is completely inhibited (recombinant LmPDI; FIG. 10): 2 mM | growth of Leishmania in a liquid medium (summary statement) [1]: inhibits the growth

CNC[C@H](O)[C@@H](O)[C@H](O)[C@H](O)CO.[O]=[Sb](=[O])[OH] [glucantime]
effect on the disease induced in the BALB/c mouse [3]: little effect

O=C(O)c1cc[c]([Hg][Cl])cc1 [pCMBA, p-chloromercuribenzoic acid]
concentration at which LmPDI activity is completely inhibited (recombinant LmPDI; FIG. 10): 0.01 mM | concentration that completely inhibited the growth of L. major in a liquid medium [1]: 0.5 mM

O=S(=O)(O)c1cc[c]([Hg][Cl])cc1 [pCMBS, p-chloromercuribenzene sulfonic acid]
growth of Leishmania in a liquid medium (summary statement) [1]: inhibits the growth

NC[C@@H]1O[C@H](O[C@H]2[C@@H](O)[C@H](O[C@@H]3[C@@H](O)[C@H](N)C[C@H](N)[C@H]3O[C@H]3O[C@H](CO)[C@@H](O)[C@H](O)[C@H]3N)O[C@@H]2CO)[C@H](N)[C@@H](O)[C@@H]1O [paramomycin]
effect on the disease induced in the BALB/c mouse [3]: little effect

tocinoic acid (CYIQNC; not fully specified (bridges); cysteine pairing not given here; UniProt P01178 20-25, looked up, fragment)
effect on the activity of LmPDI (recombinant LmPDI; FIG. 10, at the concentrations employed (0.01 to 2 mM)): did not appear to have a very great effect

zinc bacitracin
progress of the disease (lesion size) ([2]; pomade in Vaseline applied locally at the injection site, from 48 h after infection, preliminary, FIG. 14): attenuates the progress of the disease | growth of parasites (GLC94 promastigotes; 1 mM): no effect | growth of parasites (GLC94 promastigotes; 1.5 mM): partially inhibits | growth of parasites (GLC94 promastigotes; 2 mM): complete inhibition | growth of parasites (GLC94 promastigotes; 5 mM): complete inhibition | inhibition of rLmPDI activity (recombinant LmPDI; 0.1 mM): 50% | inhibition of rLmPDI activity (recombinant LmPDI; 0.5 mM): 70% | inhibition of rLmPDI activity (recombinant LmPDI; 2 mM): 100% | concentration at which LmPDI activity is completely inhibited (recombinant LmPDI; FIG. 10): 2 mM | concentration that completely inhibited the growth of L. major in a liquid medium [1]: 2 mM
